Each structure is given as a SMILES string.

In the assay the target is T1, EGFR (Homo sapiens, UniProt P00533).
T1 construct: started at nucleotide 2189 (corresponding to amino acid 667) and ended at the termination codon; made in house; host or cells: Sf9 insect cells (baculovirus)
T1 sequence (P00533 667-1210 limits assumed): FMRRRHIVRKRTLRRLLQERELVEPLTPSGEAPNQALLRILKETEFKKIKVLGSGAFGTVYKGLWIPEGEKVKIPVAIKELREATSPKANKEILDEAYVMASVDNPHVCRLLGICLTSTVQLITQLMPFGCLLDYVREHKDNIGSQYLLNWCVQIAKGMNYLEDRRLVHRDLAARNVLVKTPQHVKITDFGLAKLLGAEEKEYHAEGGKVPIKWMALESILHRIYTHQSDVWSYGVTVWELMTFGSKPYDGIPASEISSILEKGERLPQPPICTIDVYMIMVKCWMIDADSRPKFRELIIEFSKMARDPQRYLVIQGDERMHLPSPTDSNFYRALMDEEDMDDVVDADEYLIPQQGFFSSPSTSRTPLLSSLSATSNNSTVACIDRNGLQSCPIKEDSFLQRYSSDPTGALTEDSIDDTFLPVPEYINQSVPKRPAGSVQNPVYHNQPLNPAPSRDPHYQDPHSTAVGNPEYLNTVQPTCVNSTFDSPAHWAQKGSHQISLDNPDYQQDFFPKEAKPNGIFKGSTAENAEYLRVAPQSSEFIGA
Nature of the assay: EGFR Kinase Assay (GST-EGFR, 33P-ATP, Streptavidin Flashplate). The settings on record: GST-EGFR intracellular portion, 5 μM ATP. Type of assay: biochemical. The text has this: The EGFR kinase used was a fusion of Glutathione-S-Transferase (GST) and a PCR amplified intracellular portion of EGFR (NM_005228). The intracellular portion of EGFR started at nucleotide 2189 (corresponding to amino acid 667) and ended at the termination codon. The portion was PCR amplified with primers that added the lambda attB sequences to each end, recombined into an entry vector, then into a GST destination vector (as described in Gateway Technologies Manual by Invitrogen Corporation, Carlsbad, Calif.).
The destination vector was recombined in the DH10BAC strain of bacteria to produce a bacmid. The bacmid was transfected into Sf 9 cells and the supernatant containing the baculovirus was collected. The GSTEGFR protein was purified using large cultures of Sf 9 cells infected with stock virus. After an appropriate period of time, the cells were collected and lysed. The GSTEGFR was then purified from the lysate on Glutathione-Sepharose columns (as described by Amersham Biosciences, Buckinghamshire, United Kingdom).
The EGFR substrate was prepared by biotinylating polyGluTyr (128 mg) (Sigma, St. Louis, Mo.) in a 1×PBS buffer incubated together with a 12-fold molar excess of Sulfo-NHS-LC-Biotin on ice for at least 2 hrs. The free biotin was separated from the biotinylated polyGluTyr on a gel filtration column.
A mixture of a 10× kinase buffer (500 mM Tris at pH 8.0, 100 mM Magnesium Chloride and 1 mM Sodium Vanadate), DTT (1 mM final from 500 mM stock), ATP (5 μM final from 10 mM stock), biotinylated polyGluTyr (10 μg/μL stock), γ-^33P ATP (10 μCi/μL stock) and water was added to each well (90 μL/well) of a Streptavidin Flashplate (Perkin Elmer, Wellesley, Mass.).
Test compound in 100% DMSO (2 μL) was added to the appropriate wells. Diluted GSTEGFR (1:300 dilution in 50 mM Tris at pH 8.0 and 0.1% bovine serum albumin) (10 μL) was added to the wells to initiate the reactions.
The plates were incubated at 30° C. for 1 hr with shaking. The reacted contents were removed and the plates were sequentially washed three times with a 1×PBS stop buffer (300 μL without Magnesium and Calcium) and 100 mM EDTA. After the final wash, the same stop buffer (200 μL) was added to the wells. The plates were then sealed and read on the TopCount scintillation counter.
Test compounds were assayed in triplicate at 16 concentrations at half-log dilutions starting at 200 uM. A maximum and minimum signal for the assay was determined on each plate. The percent inhibition of a test compound was calculated accord to the formula
For a series of test concentrations, the IC50 was derived by graphing percent inhibition against the log of the concentrations tested for a given compound. For those compounds without an IC50, the percent inhibition results are shown at a test concentration of 2 μM.
As usually defined, the IC50 is the concentration that gives 50% inhibition. High values mean weaker potency, low ones greater potency. In turn, `C#Cc1cccc(Nc2c(C#N)cnc3nc(Nc4ccc(CN5CCC[C@H]5CO)cc4)sc23)c1` [Cpd 11, 7-(3-ethynyl-phenylamino)-2-{4-[(2S)2-hydroxymethyl-pyrrolidin-1-ylmethyl]-phenylamino}-thiazolo[4,5-b]pyridine-6-carbonitrile] yielded an IC50 of 41.7 nM. Then `N#Cc1cnc2nc(Nc3ccc(CN4CCOCC4)cc3)sc2c1Nc1ccc(F)c(Cl)c1` [Cpd 2, 7-(3-chloro-4-fluoro-phenylamino)-2-(4-morpholin-4-ylmethyl-phenylamino)-thiazolo[4,5-b]pyridine-6-carbonitrile], with 78 nM; and `N#Cc1cnc2nc(Nc3ccc(CN4CCC[C@H]4CO)cc3)sc2c1Nc1ccc(F)c(Cl)c1` [Cpd 6, 7-(3-chloro-4-fluoro-phenylamino)-2-{4-[(2S)-2-hydroxymethyl-pyrrolidin-1-ylmethyl]-phenylamino}-thiazolo[4,5-b]pyridine-6-carbonitrile], with 53 nM; and `N#Cc1cnc2nc(Nc3ccc(CN4CCOCC4)cc3)sc2c1Nc1cccc(Cl)c1` [Cpd 19, 7-(3-chloro-phenylamino)-2-(4-morpholin-4-ylmethyl-phenylamino)-thiazolo[4,5-b]pyridine-6-carbonitrile], with 79.5 nM. To `C#Cc1cccc(Nc2c(C#N)cnc3nc(NCCCN4CCOCC4)sc23)c1` [Cpd 9, 7-(3-ethynyl-phenylamino)-2-(3-morpholin-4-yl-propylamino)-thiazolo[4,5-b]pyridine-6-carbonitrile] belongs 2630 nM. To `COCCN(CCOC)S(=O)(=O)c1ccc(Nc2nc3ncc(C#N)c(Nc4ccc(F)c(Cl)c4)c3s2)cc1` [Cpd 5, 4-[7-(3-chloro-4-fluoro-phenylamino)-6-cyano-thiazolo[4,5-b]pyridin-2-ylamino]-N,N-bis-(2-methoxy-ethyl)-benzenesulfonamide] belongs 63.7 nM. Molecule `C#Cc1cccc(Nc2c(C#N)cnc3nc(NCCN4CCOCC4)sc23)c1` [Cpd 13, 7-(3-ethynyl-phenylamino)-2-(2-morpholin-4-yl-ethylamino)-thiazolo[4,5-b]pyridine-6-carbonitrile] yielded an IC50 of 3280 nM. This IC50 is about 51-fold higher than that of the molecule before.

`N#Cc1cnc2nc(Nc3ccc(O)nc3)sc2c1Nc1ccc(F)c(Cl)c1` [Cpd 27, 7-(3-chloro-4-fluoro-phenylamino)-2-(6-hydroxy-pyridin-3-ylamino)-thiazolo[4,5-b]pyridine-6-carbonitrile] gave an IC50 of 207 nM. To `N#Cc1cnc2nc(Nc3ccc(CN4CCC(N)CC4)cc3)sc2c1Nc1ccc(F)c(Cl)c1` [Cpd 31, 2-[4-(4-amino-piperidin-1-ylmethyl)-phenylamino]-7-(3-chloro-4-fluoro-phenylamino)-thiazolo[4,5-b]pyridine-6-carbonitrile] belongs 60.4 nM; to `N#Cc1cnc2nc(NCc3ccc(CN4CCOCC4)cc3)sc2c1Nc1ccc(F)c(Cl)c1` [Cpd 22, 7-(3-chloro-4-fluoro-phenylamino)-2-(4-morpholin-4-ylmethyl-benzylamino)-thiazolo[4,5-b]pyridine-6-carbonitrile], 853 nM. `COCCN(CCOC)Cc1ccc(Nc2nc3ncc(C#N)c(Nc4ccc(F)c(Cl)c4)c3s2)cc1` [Cpd 4, 2-(4-{[bis-(2-methoxy-ethyl)-amino]-methyl}-phenylamino)-7-(3-chloro-4-fluoro-phenylamino)-thiazolo[4,5-b]pyridine-6-carbonitrile] gave an IC50 of 49 nM.

In the case of `CN(C)Cc1ccc(Nc2nc3ncc(C#N)c(Nc4ccc(F)c(Cl)c4)c3s2)cc1Cl` [Cpd 18, 2-(3-chloro-4-dimethylaminomethyl-phenylamino)-7-(3-chloro-4-fluoro-phenylamino)-thiazolo[4,5-b]pyridine-6-carbonitrile], the IC50 was determined as 85.7 nM. Against the preceding molecule, the IC50 is about 1.7-fold higher. To `N#Cc1cnc2nc(Nc3ccc(CNC[C@H]4CCCO4)cc3)sc2c1Nc1ccc(F)c(Cl)c1` [Cpd 21, 7-(3-chloro-4-fluoro-phenylamino)-2-[4-({[(2R)-tetrahydro-furan-2-ylmethyl]-amino}-methyl)-phenylamino]-thiazolo[4,5-b]pyridine-6-carbonitrile] belongs 44.6 nM.

The record behind these values is patent US7659284B2, “Thiazolopyridine kinase inhibitors” (Janssen Pharmaceutica NV, priority 2004, dated 2010).
